According to paper PMC11931565, “Exploring medium and long arm extensions of 1,2,4-triazole derivatives as Candida albicans 14α-demethylase (CYP51) inhibitors” (RSC Medicinal Chemistry, 2025):
Converted amounts (≈) assume the structure as drawn.

Key:
[1] = molecular target: T1, C. albicans CYP51 (CaCYP51) (Candida albicans, UniProt P10613); assay: CaCYP51 reconstitution assay (IC50); format: biochemical; conditions: 1 μM CaCYP51, 60 μM lanosterol, 15 min at 37 °C
T1 construct: made in house; host or cells: E. coli
T1 sequence (P10613 whole entry): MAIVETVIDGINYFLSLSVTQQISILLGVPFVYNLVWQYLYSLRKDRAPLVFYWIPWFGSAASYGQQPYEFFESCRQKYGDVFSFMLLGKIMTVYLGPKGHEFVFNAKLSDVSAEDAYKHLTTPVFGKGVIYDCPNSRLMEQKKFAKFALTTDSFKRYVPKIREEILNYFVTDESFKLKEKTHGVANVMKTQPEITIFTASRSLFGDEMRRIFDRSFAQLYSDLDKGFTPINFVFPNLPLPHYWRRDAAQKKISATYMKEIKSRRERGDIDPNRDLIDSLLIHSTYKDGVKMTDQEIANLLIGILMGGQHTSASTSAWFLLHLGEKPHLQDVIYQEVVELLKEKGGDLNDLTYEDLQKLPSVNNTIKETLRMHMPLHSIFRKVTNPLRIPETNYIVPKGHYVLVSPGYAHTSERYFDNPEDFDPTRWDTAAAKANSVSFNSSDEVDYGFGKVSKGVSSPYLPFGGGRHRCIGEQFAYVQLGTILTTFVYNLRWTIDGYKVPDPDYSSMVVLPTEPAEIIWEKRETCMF
Protocol: Derivatives with a MIC <1 μg mL^−1 were chosen for IC50 testing.
C. albicans CYP51 was overexpressed in E. coli and purified and CaCYP51 reconstitutions assays performed.[10,37] The final reaction volume of 500 μL, contained; 1 μM C. albicans CYP51, 2 μM Homo sapiens cytochrome P450 reductase (CPR) (UniProtKB accession number P16435), 60 μM lanosterol, 50 μM dilaurylphosphatidylcholine, 4% w/v 2-hydroypropyl-cyclodextrin, 0.4 mg mL^−1 isocitrate dehydrogenase, 25 mM trisodium isocitrate, 50 mM NaCl, 5 mM MgCl2, and 40 mM MOPS (morpholinepropanesulfonic acid, pH 7.2). Antifungal compounds were added in 2.5 μL DMSO. The reaction was started by the addition of 4 mM NADPH-tetrasodium salt. Samples were shaken for 15 min at 37 °C and sterol metabolites extracted with ethyl acetate and derivatised with BSTFA.

native CaCYP51 = molecular target: T2, native CaCYP51 (Candida albicans, UniProt P10613); assay: CaCYP51 type II ligand binding affinity (Kd) from difference spectra saturation curves; conditions: 2.5 μM native CaCYP51; mean ± SD of three titrations; read-out: K d
T2 construct: made in house; host or cells: E. coli
T2 sequence (P10613 whole entry): as above
Protocol: Azole titration was performed in triplicate.
The ligand–CaCYP51 complex was determined by non-linear regression (Levenberg–Marquardt algorithm) using a rearrangement of the Morrison equation for tight ligand binding,[38] while weak ligand binding was calculated by the Michaelis–Menten equation. Curve fitting for novel azole saturation curves was performed using the computer program ProFit 6.1.12 (QuantumSoft, Zurich, Switzerland) for Mac OSX. Kd values were determined for each of the three replicate titrations per azole compound and then mean Kd values and standard deviations calculated.

[2] = system: C. albicans wild-type clinical isolate CA14; assay: C. albicans susceptibility testing (CLSI broth microdilution MIC), strain CA14; format: cell-based, Candida albicans; conditions: RPMI 1640, 37 °C, read at 48 h; for MIC: Candida albicans
Text: (§1) Each novel compound was screened against C. albicans wild-type clinical isolate CA14 and C. albicans laboratory strain SC5314 using the standardised CLSI M27-S4 broth dilution method.[28] […] This might be explained by the clog P data as the more lipophilic compounds should more readily penetrate the fungal membrane resulting in improved uptake or may relate to optimal fill of the small hydrophobic pocket leading to improved binding.
(§2) Antifungal MIC values were obtained according to the CLSI microdilution method for yeasts.[28]C. albicans strains CA14 and SC5314 were tested in triplicate. Cultures were diluted to 2.5 × 10^3 cells per mL in RPMI 1640 (Sigma), buffered with 0.165 M MOPS, pH 7.0. Antifungal compounds were dissolved in DMSO and added at a final concentration of 1% v/v DMSO. Plates were incubated at 37 °C and read at 48 h.

[3] = system: C. albicans laboratory strain SC5314; assay: C. albicans susceptibility testing (CLSI broth microdilution MIC), strain SC5314; format: cell-based, Candida albicans; conditions: RPMI 1640, 37 °C, read at 48 h; for MIC: Candida albicans, SC5314, 48 h
Text: as §1, §2

An IC50 [1] of 1300 nM, a Kd (native CaCYP51) of 1440 ± 266 nM and an MIC [2] of 0.25 µg/mL (≈ 0.627 µM) were found for `CC(=O)c1cccc(C(=O)NCC(O)(Cn2cncn2)c2ccc(Cl)cc2)c1` (centres unmarked) [6a, 3-Acetyl-N-(2-(4-chlorophenyl)-2-hydroxy-3-(1H-1,2,4-triazol-1-yl)propyl)benzamide] in this work. The MIC [3] was 0.25 µg/mL (≈ 0.627 µM).

With `CC(=O)c1cccc(C(=O)NCC(O)(Cn2cncn2)c2ccc(Cl)cc2Cl)c1` (centres unmarked) [6b, 3-Acetyl-N-(2-(2,4-dichlorophenyl)-2-hydroxy-3-(1H-1,2,4-triazol-1yl)propyl)benzamide] the IC50 [1] was 490 nM, the Kd (native CaCYP51) was 229 ± 45 nM and the MIC [2] was < 0.03 µg/mL. For the same molecule, the “MIC CA14” value [2] was <0.03 µg/mL, the MIC [3] was < 0.03 µg/mL and the “MIC SC5314” value [3] was 0.06 µg/mL (≈ 0.138 µM).

An IC50 [1] of 770 nM, a Kd (native CaCYP51) of 635 ± 181 nM and an MIC [2] of 0.25 µg/mL (≈ 0.628 µM) were found for `O=C(NCC(O)(Cn1cncn1)c1ccc(Cl)cc1)c1csc(Cl)n1` (centres unmarked) [7a, 2-Chloro-N-(2-(4-chlorophenyl)-2-hydroxy-3-(1H-1,2,4-triazol-1-yl)propyl)thiazole-4-carboxamide] in this work. For the same molecule, the MIC [3] was 0.25 µg/mL (≈ 0.628 µM).

An MIC [2] of 4 µg/mL (≈ 7.39 µM) and an MIC [3] of 4 µg/mL (≈ 7.39 µM) were found for `O=C(NCC(O)(Cn1cncn1)c1ccc(Cl)cc1)c1ccc(NC(=S)Nc2ccc(Cl)cc2)cc1` (centres unmarked) [11a, N-(2-(4-Chlorophenyl)-2-hydroxy-3-(1H-1,2,4-triazol-1-yl)propyl)-4-(3-(4-chlorophenyl)thioureido)benzamide] in this work.

An IC50 [1] of 670 nM, a Kd (native CaCYP51) of 125 ± 41 nM and an MIC [2] of 0.25 µg/mL (≈ 0.434 µM) were found for `O=C(NCC(O)(Cn1cncn1)c1ccc(Cl)cc1Cl)c1ccc(NC(=S)Nc2ccc(Cl)cc2)cc1` (centres unmarked) [11b, 4-(3-(4-Chlorophenyl)thioureido)-N-(2-(2,4-dichlorophenyl)-2-hydroxy-3-(1H-1,2,4-triazol-1-yl)propyl)benzamide] in this work. It also gave an MIC [3] of 0.5 µg/mL (≈ 0.868 µM).
